# Assays:
# TRPM2 channels = tested on: TRPM2 channels; design: method as in PMID 36921602; conditions: activation of TRPM2 channels; cited from earlier work
# [1] = tested on: WNK1 phosphorylation at Thr58; assay: Western blotting of WNK1 phosphorylation in cochlear nucleus; format: cell-based; conditions: mouse cochlear nuclei, 30 min
# Method: To validate these findings, SH‐SY5Y cells were incubated in a serum‐free medium with bilirubin (6 µM) or an equivalent amount of DMSO as the control, followed by protein denaturation at different temperatures (Figure 1A).
# C57BL/6 mice at postnatal day 10 (P10) were euthanized on ice, and their cochlear nuclei were dissected and incubated in artificial cerebrospinal fluid (ACSF), with or without 3 µM bilirubin, followed by rapid freezing in liquid nitrogen. The ACSF composition was 124 mM NaCl, 5 mM KCl, 1.2 mM KH2PO4, 1.3 mM MgCl2, 2.4 mM CaCl2, 24 mM NaHCO3, and 10 mM glucose (pH 7.4).
# Cells or tissues were lysed by grinding in RIPA buffer (cat. no. PC101; Epizyme Biotech) supplemented with a protease inhibitor cocktail (cat. no. 5872S; Cell Signaling Technology) at 4 °C. The lysate was subsequently centrifuged at 16000 × g for 30 min at 4 °C and the resulting supernatant was collected. The total protein concentration was determined using the Pierce BCA Protein Assay Kit (cat. no. 23 225, Thermo Fisher Scientific). The samples were denatured in a Protein Sample Loading Buffer (cat. no. LT101; Epizyme Biotech) at 95 °C and subjected to SDS‐polyacrylamide gel electrophoresis. Following electrophoresis, the proteins were transferred onto a nitrocellulose membrane (cat. no. HATF00010; Millipore) using a transfer buffer composed of 25 mM Tris, 190 mM glycine, and 20% methanol. […]
# WNK1 (491–2382) = biological target: T1, WNK1 (491–2382) (Homo sapiens, UniProt Q9H4A3); assay: MST, EGFP-tagged WNK1 truncation 491–2382; format: binding; conditions: WNK1 491–2382 (non-kinase segment), 15 min, HEK293T lysates
# T1 construct: different lengths of WNK1 truncations (1–491, 1–190, 191–491, 491–2382); expressed in transfected cells; host or cells: HEK293T
# T1 sequence (Q9H4A3 491-2382): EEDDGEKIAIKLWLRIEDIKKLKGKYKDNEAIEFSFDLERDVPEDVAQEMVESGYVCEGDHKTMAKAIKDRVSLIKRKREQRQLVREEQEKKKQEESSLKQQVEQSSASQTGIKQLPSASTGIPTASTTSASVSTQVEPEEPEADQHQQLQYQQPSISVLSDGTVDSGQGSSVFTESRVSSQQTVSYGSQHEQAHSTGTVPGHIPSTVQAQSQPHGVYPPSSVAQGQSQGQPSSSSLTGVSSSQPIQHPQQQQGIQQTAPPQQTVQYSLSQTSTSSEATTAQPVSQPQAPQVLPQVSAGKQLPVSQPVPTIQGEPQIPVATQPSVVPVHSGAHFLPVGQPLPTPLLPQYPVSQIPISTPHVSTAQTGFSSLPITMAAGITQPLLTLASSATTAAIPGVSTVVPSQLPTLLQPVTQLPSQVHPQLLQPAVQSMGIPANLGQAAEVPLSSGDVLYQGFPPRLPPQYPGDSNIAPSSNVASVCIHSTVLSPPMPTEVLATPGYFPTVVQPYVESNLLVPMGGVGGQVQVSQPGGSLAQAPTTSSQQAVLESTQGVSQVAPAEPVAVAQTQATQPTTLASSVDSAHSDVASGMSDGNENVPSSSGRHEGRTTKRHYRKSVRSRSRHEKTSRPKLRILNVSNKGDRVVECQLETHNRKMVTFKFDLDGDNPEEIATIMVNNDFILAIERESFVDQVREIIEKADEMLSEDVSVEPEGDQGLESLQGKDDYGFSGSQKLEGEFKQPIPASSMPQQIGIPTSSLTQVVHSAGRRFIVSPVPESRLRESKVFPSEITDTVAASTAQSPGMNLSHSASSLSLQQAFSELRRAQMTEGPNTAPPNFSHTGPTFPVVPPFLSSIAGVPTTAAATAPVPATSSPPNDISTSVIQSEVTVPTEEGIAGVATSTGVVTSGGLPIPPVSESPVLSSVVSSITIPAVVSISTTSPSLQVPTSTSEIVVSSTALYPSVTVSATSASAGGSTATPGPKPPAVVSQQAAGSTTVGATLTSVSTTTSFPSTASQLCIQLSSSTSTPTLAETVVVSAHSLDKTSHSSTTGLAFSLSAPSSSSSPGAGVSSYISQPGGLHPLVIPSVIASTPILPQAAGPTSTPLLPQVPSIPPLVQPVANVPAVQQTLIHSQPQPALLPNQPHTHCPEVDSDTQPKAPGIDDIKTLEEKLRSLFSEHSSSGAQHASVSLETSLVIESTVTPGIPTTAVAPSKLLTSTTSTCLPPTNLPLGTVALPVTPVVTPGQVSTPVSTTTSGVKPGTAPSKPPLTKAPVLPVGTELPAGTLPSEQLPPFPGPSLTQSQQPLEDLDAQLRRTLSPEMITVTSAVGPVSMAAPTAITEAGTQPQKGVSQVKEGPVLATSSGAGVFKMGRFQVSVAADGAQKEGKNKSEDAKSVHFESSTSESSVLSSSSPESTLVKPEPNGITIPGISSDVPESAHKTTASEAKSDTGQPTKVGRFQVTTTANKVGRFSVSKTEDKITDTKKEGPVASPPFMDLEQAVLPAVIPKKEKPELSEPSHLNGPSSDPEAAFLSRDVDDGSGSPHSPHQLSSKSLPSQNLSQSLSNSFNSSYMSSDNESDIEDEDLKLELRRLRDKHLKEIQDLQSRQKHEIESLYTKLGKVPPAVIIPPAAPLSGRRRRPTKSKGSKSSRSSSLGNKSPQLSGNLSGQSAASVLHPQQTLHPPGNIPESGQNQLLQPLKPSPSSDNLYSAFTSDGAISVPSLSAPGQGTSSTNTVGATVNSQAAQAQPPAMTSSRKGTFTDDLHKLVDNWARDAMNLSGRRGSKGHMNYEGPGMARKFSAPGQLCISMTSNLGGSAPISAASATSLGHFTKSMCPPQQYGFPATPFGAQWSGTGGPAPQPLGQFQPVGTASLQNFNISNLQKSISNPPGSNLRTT
# Source text: (§1) To further validate these findings, we constructed GFP‐tagged fusion proteins with different lengths of WNK1 truncations (1–491, 1–190, 191–491, 491–2382) based on the WNK1 domains (Figure 3E) and analyzed their binding capacity with bilirubin using MST analysis.^[ [29] ^]
# (§2) All WNK1 clones were derived from the original untagged hWNK1 cDNA (NM_018979), which was modified and subcloned into the pcDNA3.1, referred to as “full‐length WNK1” throughout this study. Truncated constructs, including 1–190aa, 191–491aa, 1–491aa, and 491–2382aa fragments, were generated by PCR using the full‐length template and subsequently ligated into linearized pcDNA3.1 vectors. WNK2 was obtained from Addgene Plasmid #24569, and WNK3 was obtained from Addgene Plasmid #81723. Both were subjected to base modifications and cloned into pcDNA3.1. The WNK4 clone was derived from hWNK4 cDNA (NM_032387.5), modified, and subcloned into the pCMV3‐C‐GFPSpark vector.
# (§3) In HEK293T cells, proteins tagged with green fluorescent protein (GFP) were expressed. The cells were lysed using the M‐PER Mammalian Protein Extraction Reagent (cat. no. 78505, Thermo Scientific) supplemented with protease inhibitors. Lysates were centrifuged at 12000 × g for 15 min at 4 °C, and the supernatant containing proteins was diluted 10‐fold with 1x PBST. […]
# WNK1 (1–190) = biological target: T2, WNK1 (1–190) (Homo sapiens, UniProt Q9H4A3); assay: MST, EGFP-tagged WNK1 truncation 1–190; format: binding; conditions: WNK1 1–190 (non-kinase segment), 15 min, HEK293T lysates
# T2 construct: different lengths of WNK1 truncations (1–491, 1–190, 191–491, 491–2382); expressed in transfected cells; host or cells: HEK293T
# T2 sequence (Q9H4A3 1-190): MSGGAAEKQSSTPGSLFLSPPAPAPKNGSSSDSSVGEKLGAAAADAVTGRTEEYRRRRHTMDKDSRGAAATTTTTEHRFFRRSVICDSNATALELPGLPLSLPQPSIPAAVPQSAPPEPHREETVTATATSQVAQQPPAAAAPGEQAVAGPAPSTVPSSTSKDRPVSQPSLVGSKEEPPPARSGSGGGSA
# Source text: as §1, §2, §3
# WNK1 (191–491) = biological target: T3, WNK1 (191–491) (Homo sapiens, UniProt Q9H4A3); assay: MST, EGFP-tagged WNK1 truncation 191–491; format: binding; conditions: WNK1 191–491, 15 min, HEK293T lysates
# T3 construct: different lengths of WNK1 truncations (1–491, 1–190, 191–491, 491–2382); expressed in transfected cells; host or cells: HEK293T
# T3 sequence (Q9H4A3 191-491): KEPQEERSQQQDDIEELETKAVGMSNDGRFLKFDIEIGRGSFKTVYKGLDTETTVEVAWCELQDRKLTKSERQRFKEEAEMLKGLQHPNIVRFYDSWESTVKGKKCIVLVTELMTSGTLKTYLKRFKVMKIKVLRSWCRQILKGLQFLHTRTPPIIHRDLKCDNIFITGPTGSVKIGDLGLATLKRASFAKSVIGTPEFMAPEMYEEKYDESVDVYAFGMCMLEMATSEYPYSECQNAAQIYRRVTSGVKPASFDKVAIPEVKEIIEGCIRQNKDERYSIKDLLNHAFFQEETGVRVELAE
# Source text: as §1, §2, §3
# FABP1 = tested on: FABP1; design: method as in PMID 37390966, PMID 34067839; conditions: cited from earlier work
# hWNK2 = biological target: T4, hWNK2 (Homo sapiens, UniProt Q9Y3S1); assay: MST, WNK kinase family member WNK2; format: binding
# T4 construct: host or cells: HEK293T
# T4 sequence (Q9Y3S1 whole entry): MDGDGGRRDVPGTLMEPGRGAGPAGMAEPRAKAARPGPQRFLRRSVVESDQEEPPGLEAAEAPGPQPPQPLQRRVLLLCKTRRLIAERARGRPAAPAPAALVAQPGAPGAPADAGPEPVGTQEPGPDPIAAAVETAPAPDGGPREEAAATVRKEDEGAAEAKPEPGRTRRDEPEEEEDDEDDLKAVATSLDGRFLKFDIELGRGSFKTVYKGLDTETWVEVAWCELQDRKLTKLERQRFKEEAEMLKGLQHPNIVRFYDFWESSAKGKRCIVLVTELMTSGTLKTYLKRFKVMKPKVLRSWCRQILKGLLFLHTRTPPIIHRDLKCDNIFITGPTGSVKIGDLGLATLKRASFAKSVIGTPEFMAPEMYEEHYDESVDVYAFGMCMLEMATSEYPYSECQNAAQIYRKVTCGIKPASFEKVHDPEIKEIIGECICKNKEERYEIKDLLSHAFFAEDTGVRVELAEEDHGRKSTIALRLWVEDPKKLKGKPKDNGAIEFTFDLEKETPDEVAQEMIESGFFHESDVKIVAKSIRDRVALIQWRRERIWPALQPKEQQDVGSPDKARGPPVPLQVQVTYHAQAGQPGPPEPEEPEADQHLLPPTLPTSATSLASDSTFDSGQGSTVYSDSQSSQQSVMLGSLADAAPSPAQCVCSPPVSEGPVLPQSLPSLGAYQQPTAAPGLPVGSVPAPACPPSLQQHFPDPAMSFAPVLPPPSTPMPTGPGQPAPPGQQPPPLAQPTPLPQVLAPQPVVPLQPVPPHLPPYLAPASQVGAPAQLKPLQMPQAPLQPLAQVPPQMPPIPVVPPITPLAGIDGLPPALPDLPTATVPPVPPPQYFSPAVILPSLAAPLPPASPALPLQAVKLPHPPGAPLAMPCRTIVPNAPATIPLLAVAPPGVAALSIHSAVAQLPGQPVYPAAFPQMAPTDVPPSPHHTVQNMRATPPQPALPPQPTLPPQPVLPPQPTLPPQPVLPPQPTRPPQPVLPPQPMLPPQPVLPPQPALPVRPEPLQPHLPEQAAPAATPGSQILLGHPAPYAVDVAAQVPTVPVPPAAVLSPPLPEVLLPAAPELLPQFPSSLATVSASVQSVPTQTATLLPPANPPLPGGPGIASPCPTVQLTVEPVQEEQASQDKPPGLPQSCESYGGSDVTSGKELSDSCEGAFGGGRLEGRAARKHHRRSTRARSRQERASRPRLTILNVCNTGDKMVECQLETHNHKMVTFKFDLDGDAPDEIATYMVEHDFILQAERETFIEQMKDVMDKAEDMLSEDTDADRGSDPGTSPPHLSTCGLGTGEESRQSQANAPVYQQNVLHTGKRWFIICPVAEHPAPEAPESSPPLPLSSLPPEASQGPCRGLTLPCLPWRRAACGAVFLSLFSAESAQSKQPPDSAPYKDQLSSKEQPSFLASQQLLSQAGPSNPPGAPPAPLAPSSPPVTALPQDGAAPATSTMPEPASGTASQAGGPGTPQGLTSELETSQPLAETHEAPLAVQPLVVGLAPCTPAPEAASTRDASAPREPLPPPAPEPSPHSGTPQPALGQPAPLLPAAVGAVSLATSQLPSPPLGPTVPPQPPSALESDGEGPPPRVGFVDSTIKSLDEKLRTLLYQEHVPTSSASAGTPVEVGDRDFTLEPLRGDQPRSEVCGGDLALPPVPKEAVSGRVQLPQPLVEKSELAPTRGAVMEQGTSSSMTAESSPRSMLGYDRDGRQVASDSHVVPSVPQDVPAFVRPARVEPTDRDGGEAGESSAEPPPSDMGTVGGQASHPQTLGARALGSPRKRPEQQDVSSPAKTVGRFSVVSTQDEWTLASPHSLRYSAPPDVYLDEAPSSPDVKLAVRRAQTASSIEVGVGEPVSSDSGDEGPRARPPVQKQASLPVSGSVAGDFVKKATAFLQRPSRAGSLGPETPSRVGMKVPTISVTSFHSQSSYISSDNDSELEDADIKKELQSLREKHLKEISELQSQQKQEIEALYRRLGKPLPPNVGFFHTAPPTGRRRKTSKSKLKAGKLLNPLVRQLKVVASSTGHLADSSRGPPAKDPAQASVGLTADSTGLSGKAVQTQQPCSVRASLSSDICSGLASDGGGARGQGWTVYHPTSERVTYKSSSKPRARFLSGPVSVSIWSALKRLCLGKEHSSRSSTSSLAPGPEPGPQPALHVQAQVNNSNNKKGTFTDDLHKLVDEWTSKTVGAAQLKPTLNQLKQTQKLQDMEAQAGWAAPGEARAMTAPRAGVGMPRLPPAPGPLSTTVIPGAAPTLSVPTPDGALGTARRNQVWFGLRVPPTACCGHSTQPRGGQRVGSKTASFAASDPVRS
# Method: To validate the direct binding of bilirubin to WNK1, we performed a Microscale Thermophoresis (MST) analysis, which assesses the binding capacity of a compound by measuring the movement of proteins over a microscopic temperature gradient.^[ [26], [27] ^] We overexpressed full‐length WNK1 fused with Green Fluorescent Protein (GFP) in HEK‐293 cells, incubated the lysates with bilirubin at varying dilutions, and subjected them to precise MST measurements in capillaries. […] Furthermore, biliverdin, a structurally similar intermediate product generated before bilirubin formation, was used as a control.
# as §2
# In HEK293T cells, proteins tagged with green fluorescent protein (GFP) were expressed. […]
# PPARα = biological target: PPARα; design: method as in PMID 37390966, PMID 34067839; conditions: liver and adipose tissue; cited from earlier work
structure (smiles),measurement,setting,value
"C=CC1=C(C)/C(=C/c2[nH]c(Cc3[nH]c(/C=C4\NC(=O)C(C)=C4C=C)c(C)c3CCC(=O)O)c(CCC(=O)O)c2C)NC1=O [bilirubin, Bilirubin]",EC50,TRPM2 channels,1900 nM
same,WNK1 phosphorylation at Thr58 (Thr60 in humans),[1],substantial reduction
same,Kd,WNK1 (491–2382),3190 nM
same,Kd,WNK1 (1–190),1830 nM
same,Kd,WNK1 (191–491),28 nM
same,concentrations at which FABP1 binds bilirubin,FABP1,1 to 4 µM
same,Kd,hWNK2,530 nM
same,Kd,PPARα,5130 nM

# Source: PMC12362796, “Bilirubin Targeting WNK1 to Alleviate NLRP3‐Mediated Neuroinflammation” (Advanced Science, 2025)
